# Values of other authors as cited in US20250170254A1, “Subdermal Implant for Sustained Drug Delivery” (OAK CREST INSTITUTE OF SCIENCE, priority 2022, published 2025).
# pIC50: −log10 of the molar value.
# Experiments:
# HIV-1 [1] = conditions: MDTG versus DTG
# [2] = in vivo
# HIV-1 [3] = test system: HIV-1
# HIV-1 [4] = conditions: long-acting injectable formulation
# [5] = 600 mg every 8 weeks, intramuscular long-acting formulation
# HIV = conditions: four times the protein adjusted IC90 from non-human primate efficacy studies
structure (smiles),measurement,setting,value
CCCCCCCCCCCCCC(=O)Oc1c2n(cc(C(=O)NCc3ccc(F)cc3F)c1=O)C[C@@H]1OCC[C@@H](C)N1C2=O [MDTG],IC50 against HIV-1 compared with DTG,HIV-1 [1],not statistically different
"C[C@@H]1CCO[C@H]2Cn3cc(C(=O)NCc4ccc(F)cc4F)c(=O)c(O)c3C(=O)N12 [DTG, dolutegravir]",systemic half-life,[2],12 to 15 h
same,pIC50,"HIV-1 [3]; in vitro against HIV-1, PBMCs, read-out: IC50 in peripheral blood mononuclear cells (PBMCs)",9.29
same,protein-adjusted IC90 (PA-IC90),"HIV-1 [3]; in vitro against HIV-1, protein-adjusted, mass units",0.064 µg/mL
same,IC90,"HIV-1 [3]; in vitro against HIV-1, protein-adjusted, read-out: protein-adjusted IC90 (PA-IC90)",150 nM
"C[C@H]1CO[C@@H]2Cn3cc(C(=O)NCc4ccc(F)cc4F)c(=O)c(O)c3C(=O)N12 [CAB, cabotegravir]",efficacy versus daily oral TDF-FTC in prevention of HIV-1,HIV-1 [4],superiority
same,participants with trough concentrations above 1×PA-IC90,[5],≥ 95%
same,participants with trough concentrations above 4×PA-IC90,[5],≥ 80%
same,target steady state plasma concentration (four times PA-IC90),HIV,0.66 µg/mL
